According to US20210154119A1, “ASMT EXPRESSION PROMOTER” (Shiseido Company, Ltd., priority 2018, published 2021):

Tested on: ASMT gene
Assay: ASMT gene expression level in epidermal keratinocytes by quantitative PCR
Type: cell-based
Procedure: Commercially available normal adult skin-derived keratinocytes (Kurabo) were inoculated into a T75 flask at 5×10^5 cells/flask, and were cultured in a keratinocyte medium (Humedia-KG2, Kurabo) at 37° C. in a 5% CO2 atmosphere until they reached semiconfluency. The resulting cells were used as seed cells. The keratinocytes were collected by trypsinization, and inoculated into a 24-well plate at 2×10^4 cells/well, and cultured in a keratinocyte medium (Humedia-KG2, Kurabo) at 37° C., 5% CO2 atmosphere until they reached confluency.
To the epidermal keratinocytes having reached confluency was added the ectoin sample at an appropriate dilution ratio so that the ectoin concentration in the medium was 1 mM, followed by the continuation of the culture at 37° C. in a 5% CO2 atmosphere. As a control, a medium not containing the ectoin sample was used to carry out the culture.
Ten hours after the addition of ectoin, the medium was removed. Then the cells were lysed and RNA was extracted therefrom using a commercially available RNA extraction reagent (RNeasy Mini Kit, Qiagen).
Using the thus extracted RNA as a template, quantitative PCR was performed with a commercially available quantitative PCR reagent (BrilliantII QRT-PCR kit, Agilent) and a quantitative PCR device (Mx-3005P, Agilent), by which the expression level of the ASMT gene was determined. At the same time, the expression level of the RPLP0 gene whose expression level was almost constant was also determined as an internal standard. Commercially available PCR primer set (Takara Bio Inc.) specific to each gene was used.
To the epidermal keratinocytes cultured in the same manner as in Example 1 was added the ectoin sample at appropriate dilution ratios so that the ectoin concentration in the medium was 0.005 wt %, 0.01 wt %, 0.02 wt %, 0.05 wt %, 0.1 wt %, followed by the continuation of the culture at 37° C. in a 5% CO2 atmosphere.
To the epidermal keratinocytes cultured in the same manner as in Example 1 was added the respective samples at appropriate dilution ratios so that the concentration in the medium was respectively 1 mM (ectoine), 100 μM (glycosyl hesperidin), 0.1% (green tea extract), and 0.1% (oolong tea extract). These concentrations are all normal concentrations to be used in external formulations. After the addition of the samples, the cells were cultured, from which the ASMT expression level was evaluated in the same manner as in Example 1. As a control, a medium not containing any sample was used to carry out the culture.

CC1=N[C@H](C(=O)O)CCN1 [ectoin, (4S)-2-methyl-1,4,5,6-tetrahydropyrimidine-4-carboxylic acid]
ASMT gene expression level relative to control (control set to 1) (ectoin 1 mM in medium, 10 hours, normal adult skin-derived keratinocytes, versus medium containing no ectoin (FIG. 1)): very high ASMT expression promoting action | Concentration-dependency of ASMT expression promoting action (ectoin 0.005-0.1 wt % in medium, 10 hours, keratinocytes (FIG. 2)): dependent on the concentration thereof | ASMT gene expression level (ASMT/RPLP0) in comparison with various antioxidants (ectoine 1 mM versus glycosyl hesperidin 100 μM, green tea extract 0.1%, oolong tea extract 0.1%, keratinocytes (FIG. 3)): higher than that of green tea extract, oolong tea extract, and glycosyl hesperidin | ASMT gene expression level (ASMT/RPLP0) (ectoine 0.02 wt % in medium, 10 hours, keratinocytes, compared with 0.005 wt % and 0.01 wt % (FIG. 2)): higher than the cases of lower concentrations of ectoine (0.005 wt %, 0.01 wt %)
